From ChEMBL document CHEMBL1201862, “PubChem BioAssay data set” (2004) come the findings set out here.

Some test systems named below: OVCAR-8; HCT-15; SK-MEL-28; UACC-257; NCI-H23; NCI-H460; IGROV-1; HL-60; COLO 205; M14; HT-29; Malme-3M; HOP-92; SF-268; SW-620; CCRF-CEM; OVCAR-5; A498.
Assay in all cases: NCI-60 cell line screen, 48 h

Structures are written as SMILES.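 All cell lines were grown in 96-well plates and treated with compound for 48 hours. Here, GI50 denotes the concentration required for 50% inhibition of growth.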 Calls of active or inactive are those of the source. Rule as the data show it: active = GI50 up to about 1.1 µM and inactive = higher.

As for `CC(C)(C)OC(=O)N[C@H]1CC(O)c2ccccc2N(CC(=O)O)C1=O` (some centres undefined), the GI50 with OVCAR-8 is > 100 µM (inactive); with HCT-15, > 100 µM; in the experiment on SK-MEL-28, > 100 µM (inactive); in the experiment with UACC-257 it was > 100 µM (inactive); in the experiment on NCI-H23, > 100 µM (inactive); with NCI-H460 it was > 100 µM (inactive). In addition, the GI50 in the experiment with IGROV-1, in the experiment with HL-60, in the experiment on COLO 205, in the experiment with M14, in the experiment with HT-29 and in the experiment with Malme-3M was > 100 µM (inactive) in each case. Moreover, the GI50 in the experiment with HOP-92, in the experiment on SF-268, in the experiment with SW-620 and in the experiment with CCRF-CEM was > 100 µM (inactive) each time.
With `Cc1cc2c(C)n(Cc3ccc(Cl)cc3Cl)nc2c(C(=O)O)c1C`, the GI50 is > 100 µM (inactive) in the experiment with OVCAR-8; 91.2 µM in the experiment on HCT-15; > 100 µM (inactive) with SK-MEL-28; > 100 µM (inactive) in the experiment with UACC-257; > 100 µM (inactive) with NCI-H23; 96.4 µM (inactive) in the experiment on NCI-H460. For the same compound, the GI50 was > 100 µM (inactive) in the experiment with IGROV-1; > 100 µM (inactive) with HL-60; > 100 µM (inactive) in the experiment with COLO 205; > 100 µM (inactive) with HT-29; > 100 µM (inactive) with Malme-3M; 42.9 µM (inactive) in the experiment on HOP-92. Also, the GI50 in the experiment with OVCAR-5, in the experiment on SF-268, with SW-620 and in the experiment with CCRF-CEM was > 100 µM (inactive) throughout.
Turning to `S=C(N/N=C/c1ccccc1)NC1CC(c2ccccc2)Oc2ccccc21` (centres undefined), the GI50 with OVCAR-8 is 48 µM (inactive); in the experiment with SK-MEL-28, 70 µM (inactive); with NCI-H23, 25.8 µM (inactive); in the experiment on NCI-H460 it was 23.1 µM (inactive); with IGROV-1, > 100 µM (inactive); in the experiment with COLO 205 it was > 100 µM (inactive). Moreover, the GI50 in the experiment on M14 was 15.3 µM (inactive); in the experiment on HT-29, 53 µM (inactive); with Malme-3M it was 68.1 µM (inactive); in the experiment with HOP-92, 2.17 µM (inactive); with OVCAR-5 it was > 100 µM (inactive); in the experiment with SF-268, 51.4 µM (inactive). In addition, the GI50 with SW-620 is > 100 µM (inactive); in the experiment on CCRF-CEM, > 10 µM (inactive).
For `N#C/C(=C\c1ccc[nH]1)C(=O)c1ccccc1`, the GI50 in the experiment with OVCAR-8 was > 100 µM (inactive); with HCT-15 it was > 100 µM; in the experiment on SK-MEL-28 it was > 100 µM (inactive); in the experiment with UACC-257, > 100 µM (inactive); in the experiment on NCI-H23, > 100 µM (inactive); with NCI-H460 it was > 100 µM (inactive). In addition, the GI50 with HL-60 was > 100 µM (inactive); with COLO 205 it was > 100 µM (inactive); in the experiment with M14, > 100 µM (inactive); in the experiment with HT-29, > 100 µM (inactive); with Malme-3M it was > 100 µM (inactive); with HOP-92 it was 70.8 µM (inactive). Moreover, the GI50 in the experiment with OVCAR-5, with SF-268, in the experiment on SW-620 and with CCRF-CEM was > 100 µM (inactive) in each case.
As to `CC(=O)NC(CCCNC(=O)N(CCCl)N=O)C(=O)NCc1ccccc1` (centres undefined), the GI50 was > 100 µM (inactive) in the experiment with OVCAR-8; > 100 µM in the experiment with HCT-15; > 100 µM (inactive) in the experiment on SK-MEL-28; > 100 µM (inactive) with UACC-257; > 100 µM (inactive) in the experiment with NCI-H23; 2.32 µM (inactive) in the experiment on NCI-H460. Further, the GI50 in the experiment on IGROV-1 is 59.7 µM (inactive); in the experiment with HL-60, 24 µM (inactive); in the experiment on COLO 205 it was > 100 µM (inactive); with M14, > 100 µM (inactive); in the experiment with HT-29, > 100 µM (inactive); in the experiment on Malme-3M, > 100 µM (inactive). For the same compound, the GI50 is > 100 µM (inactive) in the experiment with HOP-92, 6.53 µM (inactive) with SF-268, > 100 µM (inactive) in the experiment with SW-620 and 46.3 µM (inactive) in the experiment on CCRF-CEM.
As to `Cc1ccccc1C1SCc2nc3ccccc3n21` (centres undefined), the GI50 in the experiment on OVCAR-8 is > 100 µM (inactive); with SK-MEL-28 it was 23.6 µM (inactive); in the experiment on UACC-257, 4.26 µM (inactive); in the experiment with NCI-H23, 12.8 µM (inactive); in the experiment on IGROV-1, > 100 µM (inactive); in the experiment on HL-60, 1.92 µM (inactive). Also, the GI50 with COLO 205 was > 100 µM (inactive); in the experiment on Malme-3M, 44.9 µM (inactive); with HOP-92, 2.43 µM (inactive); with OVCAR-5, 3.38 µM (inactive); with SF-268, > 100 µM (inactive); with CCRF-CEM, > 100 µM (inactive).
`CCOC(=O)/C(O)=C(/C(=O)OC)c1ccc(Cl)cc1`: the GI50 in the experiment on OVCAR-8 is > 100 µM (inactive); in the experiment with HCT-15, > 100 µM; with SK-MEL-28 it was > 100 µM (inactive); in the experiment with UACC-257, > 100 µM (inactive); with NCI-H23, > 100 µM (inactive); in the experiment with NCI-H460 it was > 100 µM (inactive). Moreover, the GI50 with IGROV-1, with COLO 205, with A498, in the experiment on M14, with HT-29 and in the experiment with Malme-3M was > 100 µM (inactive) in each case. The GI50 in the experiment with OVCAR-5, with SF-268, with SW-620 and with CCRF-CEM was > 100 µM (inactive) in each case.
Consider `CC12Oc3ccc4ccccc4c3CC1Cc1c(ccc3ccccc13)O2` (centres undefined), for which the GI50 with OVCAR-8 is 49.7 µM (inactive); in the experiment with SK-MEL-28, > 100 µM (inactive); with UACC-257 it was 50.4 µM (inactive); in the experiment on NCI-H23 it was > 100 µM (inactive); with NCI-H460, 82.4 µM (inactive); in the experiment with HL-60, > 100 µM (inactive). For the same compound, the GI50 was > 100 µM (inactive) in the experiment on COLO 205; 38.9 µM (inactive) in the experiment with M14; > 100 µM (inactive) with HT-29; 3.44 µM (inactive) with Malme-3M; 0.124 µM (active) in the experiment on HOP-92; > 100 µM (inactive) in the experiment with OVCAR-5. For the same compound, the GI50 in the experiment with SF-268 and in the experiment with SW-620 was > 100 µM (inactive) each time.
In the case of `C1=CC2SSSC2C1` (centres undefined), the GI50 in the experiment on OVCAR-8 was > 100 µM (inactive); in the experiment on HCT-15, > 100 µM; in the experiment on SK-MEL-28, > 100 µM (inactive); in the experiment with UACC-257 it was > 100 µM (inactive); in the experiment with NCI-H23 it was > 100 µM (inactive); in the experiment with NCI-H460, > 100 µM (inactive). The GI50 in the experiment on IGROV-1, with HL-60, in the experiment on COLO 205, in the experiment with M14, in the experiment with HT-29 and with Malme-3M was > 100 µM (inactive) in each case. Besides, the GI50 in the experiment with HOP-92, with OVCAR-5, with SF-268, with SW-620 and with CCRF-CEM was > 100 µM (inactive) throughout.
As to `COc1ccc(CCN(C)C2CCC(C#N)(c3ccc(OC)c(OC)c3)CC2)cc1OC` (centres undefined), the GI50 with OVCAR-8 is > 100 µM (inactive); with HCT-15 it was > 100 µM; in the experiment with SK-MEL-28 it was 83.8 µM (inactive); in the experiment with UACC-257, > 100 µM (inactive); in the experiment on NCI-H23, > 100 µM (inactive); in the experiment with NCI-H460 it was > 100 µM (inactive). In addition, the GI50 was > 100 µM (inactive) in the experiment on IGROV-1; 71 µM (inactive) in the experiment with HL-60; 26.7 µM (inactive) in the experiment with COLO 205; > 100 µM (inactive) in the experiment on M14; 34.4 µM (inactive) in the experiment with HT-29; > 100 µM (inactive) with Malme-3M. Further, the GI50 was 38.9 µM (inactive) with HOP-92; > 100 µM (inactive) in the experiment with OVCAR-5; > 100 µM (inactive) with SF-268; > 100 µM (inactive) in the experiment on SW-620; > 100 µM (inactive) in the experiment with CCRF-CEM.
